Consider 33 sequences from the OligoGym collection.

Several values for one entry are separate records, joined by “and”; a condition that tells them apart may be missing. Equal values may be shown once. After the bases stand the sugars from the 5' end (letter, count) and the backbone: PS all phosphorothioate, else s phosphorothioate and o phosphodiester by linkage. Methylation of C is not given here. e = 2'-O-(2-methoxyethyl) (MOE); k = constrained ethyl (cEt); d = 2'-deoxy (DNA)

For one series, the target named is IRF5. Conditions: ASO, KARPAS-229, 0.44444 µM.
Take “CCAATTTTGCATTCCA (sugars k3 d9 k3 e1, PS)”: the target mRNA inhibition is 61% and 54% and 62%. For the sequence “CCATTCTATGCCTTTT (sugars kkdddddddddkekek, PS)”, the target mRNA inhibition is 29%.

The series is the same for the next values; noted with them: ASO, KARPAS-229, 1.33333 µM.
With “CCAATTTTGCATTCCA (sugars k3 d9 k3 e1, PS)”, the target mRNA inhibition is 79% and 75% and 82%.

Still in this series, the particulars now being: ASO, KARPAS-229, 4 µM.
CAATTTTGCATTCCAT (sugars k3 d10 k3, PS) came in with a target mRNA inhibition of 52%. Consider “CAATTTTGCATTCCAT (sugars kddddddddddkekek, PS)”, for which the target mRNA inhibition came out at 21%. In turn, “CAATTTTGCATTCCAT (sugars kdddddddddkekeke, PS)” yielded a target mRNA inhibition of 19%.

In the case of “CACATCTCCACATCAG (sugars k3 d9 k3 e1, PS)”, the target mRNA inhibition stood at 25%. The same measure, in the same setting: as for “CACCACTGTGTACCCC (sugars kkddddddddkekekk, PS)”, the figure is 0%. Sequence “CACTGACACAGGCGGA (sugars k3 d9 k3 e1, PS)” came in with a target mRNA inhibition of 0%. “CACTGACACAGGCGGA (sugars kdddddddddkekeke, PS)” returned a target mRNA inhibition of 0%. “CACTGACACAGGCGGA (sugars kkkddddddddkekek, PS)” registered a target mRNA inhibition of 0%. Still for that read-out and setting: the figure for “CAGGTTCTTGGACTCT (sugars kdddddddddkekeke, PS)” is 0%; for “CAGGTTCTTGGACTCT (sugars kkkdddddddddkeke, PS)” it is 1%; for “CATCTCCACATCAGTC (sugars kkddddddddkekekk, PS)” it is 23%. Consider “CATTCCATATACACAC (sugars k2 d9 e3 k2, PS)”, for which the target mRNA inhibition stood at 21%. Sequence CATTCCATATACACAC (sugars k3 d10 k3, PS) yielded a target mRNA inhibition of 28%. “CATTCCATATACACAC (sugars kdddddddddkekeke, PS)” displayed a target mRNA inhibition of 7%. For the sequence “CATTCCATATACACAC (sugars kekdddddddddeekk, PS)”, the target mRNA inhibition was found to be 24%. On to “CATTCCATATACACAC (sugars kkddddddddddkeke, PS)”, for which the target mRNA inhibition came out at 30%. “CATTCCATATACACAC (sugars kkddddddddkekekk, PS)” displayed a target mRNA inhibition of 17%. In the case of “CCAATGCAACATCCAT (sugars k2 d8 e4 k2, PS)”, the target mRNA inhibition is 0%. With “CCAATGCAACATCCAT (sugars k3 d9 k3 e1, PS)”, the target mRNA inhibition came out at 16%. Take “CCAATGCAACATCCAT (sugars kkddddddddkekekk, PS)”: the target mRNA inhibition was found to be 0%. Sequence “CCAATTTTGCATTCCA (sugars k2 d9 e3 k2, PS)” returned a target mRNA inhibition of 30%. Sequence “CCAATTTTGCATTCCA (sugars kkkddddddddkekek, PS)” yielded a target mRNA inhibition of 42%. CCATTCTATGCCTTTT (sugars k3 d10 k3, PS): the target mRNA inhibition amounted to 43%. In the case of “CCATTCTATGCCTTTT (sugars kkdddddddddkekek, PS)”, the target mRNA inhibition is 62% and 61%.

As to “CCCAATGCAACATCCA (sugars kkkdddddddddkeke, PS)”, the target mRNA inhibition was determined as 0%.

“CCTTCTGCAGGGAGTC (sugars kddddddddddkekek, PS)”: the target mRNA inhibition is 0%. Sequence “CCTTCTGCAGGGAGTC (sugars kdddddddddkekeke, PS)” gave a target mRNA inhibition of 0%. For “CCTTCTGCAGGGAGTC (sugars kekdddddddddeekk, PS)”, the target mRNA inhibition was 14%. For the sequence “CCTTCTGCAGGGAGTC (sugars kkkddddddddkekek, PS)”, the target mRNA inhibition worked out at 0%. On the same count and under the same terms, the figure for “CGGTCTTTGAGGTCTG (sugars kekdddddddddeekk, PS)” is 49%; for “CGGTCTTTGAGGTCTG (sugars kkdddddddddkekek, PS)” it is 44%; for “CGGTCTTTGAGGTCTG (sugars kkkddddddddkdkdk, PS)” it is 57%.

The same series, now with this note: ASO, KARPAS-229, 12 µM.
Consider “CCAATTTTGCATTCCA (sugars k3 d9 k3 e1, PS)”, for which the target mRNA inhibition is 88% and 91%. Regarding “CCATTCTATGCCTTTT (sugars kkdddddddddkekek, PS)”, the target mRNA inhibition was found to be 81%.
